The results in this text go back to US4518588A, “Process for the preparation of an inclusion complex of N-(1--phenylethyl)-3,3-diphenylpropylamine and the hydrochloride thereof respectively with cyclodextrin” (priority 1981, dated 1985).

What is called LD50 is the dose at which mortality reaches 50%. Low values mean greater toxicity, high ones lower toxicity. The thermodynamic solubility is the concentration in solution at equilibrium with solid.

One data set can be described thus: Thermoanalytical assay. The class given is physicochemical. On the procedure: Thermoanalytical assay of the product according to Example 1.
Phendiline starts to evaporate respectively to decompose at 150° C. and 98% mass change can be observed up to 250° C.

The nature of data set [1]: Resorption tests on Sartorius SM 16750 Resorption model, diffusion and resorption rate constants. The class given is in vitro ADME. Conditions: in vitro; for diffusion constant (Kd) from the intestine: resorption from the intestine. On the procedure: (§1) The in vitro tests were justified by the fact that the measurements are much more reproducible than by carrying out the tests in vivo.
The resorption tests were performed on a Sartorius SM 16750 Resorption model, the membranes used were suitable for modelling the resorption from the stomach and from the intestine. On the basis of the test results the diffusion (Kd) and the resorption rate constant (Ki) were calculated for the test substances.

Data set [2] can be described thus: Determination of dissolved (MG) and resorbed (Mi) active ingredient on Sartorius SM 16751 type model. In kind it is in vitro ADME. Conditions: 100. minute; segments of the gastro-intestinal system, in vitro; FIG. 1.
Text: as §1
The dissolution and the resorption are subsequent processes which depend greatly on each other. Under physiological conditions resorption is partially influenced by the pH relations at the place of the resorption and partially by the time spent by the pharmaceutical at the place of the resorption.
The average spent time in each segment of the gastro-intestinal system and the pH values are as follows:
The determination of the dissolved (MG) and the resorbed (Mi) active ingredient was performed on a Sartorius SM 16751 type Lose model [H. Stricker: Pharm. Ind. 33, 157 (1971); H. Sticker: Drugs in Germany 14, 93 (1971)].
The amount of the resorbed phendiline, phendiline-CD-complex as well as phendiline hydrochloride and phendiline-hydrochloride-CD-complex from the gastro-intestinal tract is shown in FIG. 2 where F stands for the resorbed amount of phendiline, F-CD stands for the resorbed amount of phendiline-cyclodextrine-complex, FHCl stands for the resorbed amount of phendiline-hydrochloride and FHCl-CD stands for the resorbed amount of phendiline-hydrochloride-cyclodextrine-complex.

The next data set can be described thus: Acute toxicity. Particulars: mouse, in vivo, dose as phendiline active ingredient, 5% Tween 80; for LD50 at 24 h: observation time 24 hours.
A short description of the next data set: Solubility in words. In kind it is physicochemical.
Data set [3] in a line: Solubility of phendiline hydrochloride in β-cyclodextrin solutions of various concentration. In kind it is physicochemical. Conditions: 37° C.; for solubility thermodynamic at 3 h: water with beta-cyclodextrin, phendiline equivalents; for β-cyclodextrin mmole / phendiline mmole: 3 hours. On the procedure: 0.22 g. (0.6 mmole) of phendiline hydrochloride is stirred at 37° C. for 3 hours in 3 ml. of water and in β-cyclodextrin solutions of various concentration by a magnetic stirrer at 150 rot./min rate. The concentration of the dissolved phendiline hydrochloride is determined by spectrophotometry and expressed in phendiline equivalents.

Setting [4] is: β-cyclodextrin 15 mg./ml. (13.2 mmole/l.).
Where [5] appears, read: β-cyclodextrin 20 mg./ml. (17.6 mmole/l.).
Where [6] appears, read: β-cyclodextrin 25 mg./ml. (22.0 mmole/l.).
The mark [7] stands for this setting: β-cyclodextrin 30 mg./ml. (26.4 mmole/l.).

Values joined by “and” are separate entries in the source; they are usually repeats but may differ in a detail not shown here. Identical values can stand only once. Like-named read-outs stand apart in the source and are kept apart here.

The compound Cyclodextrin gave a decomposition temperature in “Thermoanalytical assay” (thermoanalytical assay) of 270 °C.

For `CC(NCCC(c1ccccc1)c1ccccc1)c1ccccc1` (stereo not drawn) [phendiline, N-(1-phenylethyl)-3,3-diphenylpropylamine], the “resorption rate constant (Ki) from the intestine” value in data set [1] stood at 0.0051 min⁻¹. Besides, the “diffusion constant (Kd) from the intestine” value in data set [1] is reported as 6.9 × 10^-4 cm^2 min^-1. In data set [2], the amount dissolved turned out to be 75 mg. The 50% lethal dose (LD50) at 24 h in “Acute toxicity” (ip, intraperitoneal) was determined as 47.5 mg/kg. This compound also gave an LD50 at 72 h in the data set “Acute toxicity” (po, per os, observation time 72 hours) of 512 mg/kg. Further, in “Thermoanalytical assay” (thermoanalytical assay), the “temperature at which it starts to evaporate respectively to decompose” value was 150 °C. The mass change in “Thermoanalytical assay” (up to 250° C.) is recorded as 98%. Further, the results for the solubility in water entry in “Solubility in words” and in the data set “Solubility in words” (listed as Phendiline) were “very poor” and “not soluble in water”, respectively.

For `CC(NCCC(c1ccccc1)c1ccccc1)c1ccccc1.Cl` (stereo not drawn) [phendiline hydrochloride, N-(1-phenylethyl)-3,3-diphenylpropylamine hydrochloride], the “resorption rate constant (Ki) from the intestine” value in data set [1] is 0.0049 min⁻¹. Moreover, the “diffusion constant (Kd) from the intestine” value in data set [1] was 6.7 × 10^-4 cm^2 min^-1. In addition, in “Acute toxicity” (ip, intraperitoneal, observation time 1 hour), the LD50 at 1 h was 81.1 mg/kg. Further, the LD50 at 24 h in “Acute toxicity” (po, per os) amounted to 522 mg/kg. Besides, the thermodynamic solubility at 3 h in data set [3] (setting [4]) was 4390 µg/mL and 13900 µM; in data set [3] (setting [5]) it was 5950 µg/mL and 18600 µM; in data set [3] (setting [6]), 6940 µg/mL and 22000 µM; in data set [3] (setting [7]), 7510 µg/mL and 23800 µM. The “β-cyclodextrin mmole / phendiline mmole” value came out at 0.95 in data set [3] (setting [4]), 0.95 in data set [3] (setting [5]), 1.00 in data set [3] (setting [6]) and 1.10 in data set [3] (setting [7]). Also, the solubility in water entry in “Solubility in words” is “extremely poor”.

On to β-cyclodextrin, for which, in the data set “Thermoanalytical assay” (thermoanalytical assay), the “temperature of melting with decomposition” value is 300 °C.
